Reference: US7776863B2, “Methods of treating HIV infection” (priority 2004, dated 2010)

Assays:
uninfected cells = assay: Cytotoxicity assay of drug combinations, uninfected cells, MTS assay; format: cell-based; settings: Compound 1 + other drug at the highest concentrations tested, 6 days
Method: Drug Susceptibility and Cytotoxicity Assays. […] Each drug ratio consisted of an array of 3-fold serial dilutions, and was performed in quadruplicate. The plates were incubated at 37° C./5% CO2. […] On day-five post-infection, 20 μl from each well was harvested and quantitated by a reverse transcriptase (RT) assay, or in samples involving non-nucleoside RT inhibitors, an MTS assay. The PM-1 cells infected with HIV-1 Bal and used for studying the combinations with CCR5 inhibitors were incubated for six days. On day-six post-infection, 20 μl from each well was harvested, 20- and 50-fold diluted and quantitated by p24 assay. Cytotoxicity assays were performed using uninfected cells, exposed to the same drug combinations, and incubated for six days. Cell viability was determined by an MTS assay. The CC50 values were calculated by using the exponential form of the median effect equation as mentioned below for calculation of EC50.

HIV-1 LAI = assay: microbe, parasite or virus in culture; settings: for Combination Indices at % HIV Inhibition (Confidence Interval) 50% / Combination Indices at % HIV Inhibition (Confidence Interval) 75% / Combination Indices at % HIV Inhibition (Confidence Interval) 90% / Overall Result (combined anti-HIV effect): Compound 1 + named drug; for Combination Indices at % HIV Inhibition (Confidence Interval) 50% / Combination Indices at % HIV Inhibition (Confidence Interval) 75% / Combination Indices at % HIV Inhibition (Confidence Interval) 90%: 95% confidence interval in parentheses; for Overall Result (combined anti-HIV effect): all ratios, MT-2 cells, HIV-1 LAI; for EC50: Human immunodeficiency virus 1, MT2, 120 h
Method: (§1) Virus and cell lines. The T-cell lines, MT-2 and PM-1 were obtained through the AIDS Research and Reference Reagent Program, NIAID, and were contributed by Dr. D. Richman and Dr. R. Gallo, respectively. Both cell lines were cultured in RPMI 1640 medium supplemented with 10% fetal bovine serum, 2 mM L-glutamine and sub-cultured twice a week. The LAI strain of HIV-1 was obtained from the Fred Hutchinson Cancer Research Center, and the Bal strain was from NIH. Both virus stocks were amplified and titered in MT-2 cells (LAI) and PM-1 cells (Bal) using a virus infectivity assay.
(§2) Drug Susceptibility and Cytotoxicity Assays. For drug susceptibility assays, MT-2 cells were infected with HIV-1 LAI (or PM-1 cells with HIV-1 Bal) at an MOI of 0.005, and seeded into 96-well microtiter plates (0.1×10^6 cells/ml) containing serial dilutions of test compounds. […] Each drug ratio consisted of an array of 3-fold serial dilutions, and was performed in quadruplicate. The plates were incubated at 37° C./5% CO2. The MT-2 cells infected with HIV-1 LAI were incubated for 5 days. On day-five post-infection, 20 μl from each well was harvested and quantitated by a reverse transcriptase (RT) assay, or in samples involving non-nucleoside RT inhibitors, an MTS assay. The PM-1 cells infected with HIV-1 Bal and used for studying the combinations with CCR5 inhibitors were incubated for six days. On day-six post-infection, 20 μl from each well was harvested, 20- and 50-fold diluted and quantitated by p24 assay. Cytotoxicity assays were performed using uninfected cells, exposed to the same drug combinations, and incubated for six days. Cell viability was determined by an MTS assay. The CC50 values were calculated by using the exponential form of the median effect equation as mentioned below for calculation of EC50.
(§3) Analysis of Drug Combination Effects. For determination of CI values, drugs were diluted in a fixed ratio and multiple ratios were analyzed. The drug serial dilutions spanned a range of concentrations near the EC50 value of each compound, so that equivalent antiviral activities could be compared. Concentration-response curves were estimated for each individual drug and every combination using the median-effect equation. The equation was fit using a nonlinear regression routine (Proc Nlin) in PC SAS version 8.01 (SAS Institute Inc., SAS Version 8.01, Cary, N.C.: SAS Institute Inc., 1990).
(§4) In this equation, Fa stands for “fraction affected,” and represents the fraction of the viral load that has been inactivated. […] ED50 is drug concentration that is expected to reduce the amount of virus by 50%, and m is a parameter that reflects the slope of the concentration-response curve.
(§5) To assess antiviral effects of different drug combination treatments, combination indices (CIs) were calculated according to Chou and Rideout. The combination index was computed as CI=[D]1/[Dm]1+[D]2/[Dm]2
(§6) In this equation [Dm]1 and [Dm]2 are the concentrations of drugs that would individually produce a specific level of effect, while [D]1 and [D]2 are the concentrations of drugs in combination that would produce the same level of effect.
(§7) Theoretically, additivity is implied if the CI is equal to one, synergy if the CI is less than one, and antagonism if the CI is greater than one. […] At best, we can construct a range that contains the likely values for the CI, given the noise in the data. In this report, these ranges are reported in parentheses next to each point estimate of the CI. […] If the range fell entirely above 1.0, we would infer antagonistic behavior. If the range were to include 1.0, we would infer additivity.
(§8) In carrying out the combination experiments below, the EC50 for Compound 1 and each comparator compound was determined during the course of each study, and used in the subsequent data analysis.

HIV-1 Bal = assay: Drug susceptibility assay, PM-1 cells infected with HIV-1 Bal, combinations with CCR5 inhibitors (p24 assay); format: cell-based; settings: for Combination Indices at % HIV Inhibition (Confidence Interval) 50% / Combination Indices at % HIV Inhibition (Confidence Interval) 75% / Combination Indices at % HIV Inhibition (Confidence Interval) 90%: 95% confidence interval in parentheses
Method: as §1, §2, §3, §4, §5, §6, §7, §8

[1] = EC50 ratio 1:1 (Compound 1:comparator)
[2] = EC50 ratio 1:2.5 (Compound 1:comparator)
[3] = EC50 ratio 2.5:1 (Compound 1:comparator)
[4] = Compound 1 + CCR5 inhibitor, EC50 ratio 1:1, PM-1 cells, HIV-1 Bal
[5] = Compound 1 + CCR5 inhibitor, EC50 ratio 1:2.5, PM-1 cells, HIV-1 Bal
[6] = Compound 1 + CCR5 inhibitor, EC50 ratio 2.5:1, PM-1 cells, HIV-1 Bal

| Structure (SMILES) | Combination Indices at % HIV Inhibition (Confidence Interval) 50% (HIV-1 LAI; [1]) | Combination Indices at % HIV Inhibition (Confidence Interval) 75% (HIV-1 LAI; [1]) | Combination Indices at % HIV Inhibition (Confidence Interval) 90% (HIV-1 LAI; [1]) | Combination Indices at % HIV Inhibition (Confidence Interval) 50% (HIV-1 LAI; [2]) | Combination Indices at % HIV Inhibition (Confidence Interval) 75% (HIV-1 LAI; [2]) | Combination Indices at % HIV Inhibition (Confidence Interval) 90% (HIV-1 LAI; [2]) | Combination Indices at % HIV Inhibition (Confidence Interval) 50% (HIV-1 LAI; [3]) | Combination Indices at % HIV Inhibition (Confidence Interval) 75% (HIV-1 LAI; [3]) | Combination Indices at % HIV Inhibition (Confidence Interval) 90% (HIV-1 LAI; [3]) | Overall Result (combined anti-HIV effect) (HIV-1 LAI) | EC50 (HIV-1 LAI) [nM] | further results |
| --- | --- | --- | --- | --- | --- | --- | --- | --- | --- | --- | --- | --- |
| CON(Cc1ccc(F)cc1)C(=O)C=C(O)C(=O)O [Compound 2, 3-[(4-Fluorobenzyl)methoxycarbamoyl]-2-hydroxyacrylic acid] | 0.48 (0.39, 0.58) | 0.51 (0.37, 0.65) | 0.54 (0.31, 0.76) | 0.44 (0.36, 0.53) | 0.51 (0.37, 0.65) | 0.59 (0.34, 0.85) | 0.50 (0.36, 0.63) | 0.70 (0.44, 0.97) | 1.00 (0.41, 1.59) | moderate synergistic | 79 | Cytotoxicity of the drug combination (uninfected cells): No significant cytotoxicity; Overall Result (combined anti-HIV effect) (HIV-1 LAI; listed as BMS-538203): Moderate- |
| CCO/N=C(\c1ccc(Br)cc1)C1CCN(C2(C)CCN(C(=O)c3c(C)cc[n+]([O-])c3C)CC2)CC1 [SchC] |  |  |  |  |  |  |  |  |  |  |  | Combination Indices at % HIV Inhibition (Confidence Interval) 50% (HIV-1 Bal; [4]): 0.19 (0.14, 0.25); Combination Indices at % HIV Inhibition (Confidence Interval) 75% (HIV-1 Bal; [4]): 0.46 (0.29, 0.63); Combination Indices at % HIV Inhibition (Confidence Interval) 90% (HIV-1 Bal; [4]): 1.12 (0.4, 1.83); Combination Indices at % HIV Inhibition (Confidence Interval) 50% (HIV-1 Bal; [5]): 0.50 (0.38, 0.61); Combination Indices at % HIV Inhibition (Confidence Interval) 75% (HIV-1 Bal; [5]): 0.92 (0.64, 1.21); Combination Indices at % HIV Inhibition (Confidence Interval) 90% (HIV-1 Bal; [5]): 1.74 (0.83, 2.65); Combination Indices at % HIV Inhibition (Confidence Interval) 50% (HIV-1 Bal; [6]): 0.08 (0.05, 0.11); Combination Indices at % HIV Inhibition (Confidence Interval) 75% (HIV-1 Bal; [6]): 0.21 (0.14, 0.28); Combination Indices at % HIV Inhibition (Confidence Interval) 90% (HIV-1 Bal; [6]): 0.54 (0.21, 0.88); Overall Result (combined anti-HIV effect) (HIV-1 Bal; Compound 1 + CCR5 inhibitor, all ratios, PM-1 cells, HIV-1 Bal): Additive-; EC50 (HIV-1 Bal; single drug, PM-1 cells infected with HIV-1 Bal, 6 days, p24 assay): 0.9 nM |
| Cc1cn([C@H]2C=C[C@@H](CO)O2)c(=O)[nH]c1=O [Stavudine, stavudine] | 0.52 (0.40, 0.64) | 0.60 (0.41, 0.80) | 0.75 (0.36, 1.14) | 0.38 (0.31, 0.45) | 0.37 (0.28, 0.46) | 0.40 (0.23, 0.56) | 0.69 (0.51, 0.88) | 0.78 (0.49, 1.07) | 0.92 (0.36, 1.48) | Moderate- | 72 |  |
